This note sets out measurements from patent US8354419B2, “Benzimidazole analogues for the treatment or prevention of flavivirus infections” (Vertex Pharmaceuticals Incorporated, priority 2009, dated 2013).

This experiment has as its system HCV (Ib) RNA replication. Kind of experiment: Cell-based luciferase reporter HCV (1b) RNA replication assay (replicon cell lines Huh-7 5.2 and ET). Further details: species or system Hepatitis C virus. Particulars: Hepatitis C virus, Huh-7, 96 h, HCV 1b genotype replicon, luciferase readout, 4 days incubation; read-out: EC50_1b. In outline: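 Huh-7-derived 5.2 or ET replicon cells carrying a firefly luciferase reporter were seeded at ~3000 cells/well in medium without G418 or phenol red. Compound was added after 3-4 h, followed by 4 days at 37 °C. Luciferase readout was used, with IC50 fitted by nonlinear regression from eleven concentrations in duplicate.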
Background: Reporter assays use an easily measured gene product as a stand-in for the process of interest.
Turning to `COC(=O)N[C@H](C(=O)N1CCC[C@H]1c1nc2cc(-c3ncc(-c4ccc5nc([C@@H]6CCCN6C(=O)[C@@H](NC(=O)OC)C(C)C)[nH]c5c4)c(O)n3)ccc2[nH]1)C(C)C` [Compound 20, ((S)-1-{(S)-2-[5-(4-Hydroxy-5-{2-[(S)-1-((S)-2-methoxycarbonylamino-3-methyl-butyryl)-pyrrolidin-2-yl]-1H-benzoimidazol-5-yl}-pyrimidin-2-yl)-1H-benzoimidazol-2-yl]-pyrrolidine-1-carbonyl}-2-methyl-propyl)-carbamic acid methyl ester], the EC50 lay within 5 to 5000 nM.
Take `COC(=O)N[C@H](C(=O)N1CCC[C@H]1c1nc2cc(-c3ccc(-c4ccc5nc([C@@H]6CCCN6C(=O)[C@@H](NC(=O)OC)C(C)(C)O)[nH]c5c4)c4c3OCO4)ccc2[nH]1)C(C)(C)O` [Compound 219]: the EC50 is at most 5 nM.
`O=C([C@H]1CCCO1)N1CCC[C@H]1c1nc2cc(C#Cc3ccc4nc([C@@H]5CCCN5C(=O)[C@H]5CCCO5)[nH]c4c3)ccc2[nH]1` [Compound 32, [(S)-5-(5-{2-[(S)-1-((R)-tetrahydro-furan-2-carbonyl)-pyrrolidin-2-yl]-1H-benzoimidazol-5-ylethynyl}-1H-benzoimidazol-2-yl)-pyrrolidin-1-yl]-(R)-tetrahydro-furan-2-yl-methanone]: the EC50 lay within 5 to 5000 nM.
In the case of `COCc1cc(-c2ccc3[nH]c([C@@H]4CCCN4C(=O)[C@@H](NC(=O)OC)C(C)C)nc3c2)c(COC)cc1-c1ccc2[nH]c([C@@H]3CCCN3C(=O)[C@@H](NC(=O)OC)C(C)C)nc2c1` [Compound 218] it was at most 5 nM.
As for `COC(=O)N[C@H](C(=O)N1CCC[C@H]1c1nc2cc(-c3cc4sc(-c5ccc6nc([C@@H]7CCCN7C(=O)[C@@H](NC(=O)OC)[C@@H](C)OC)[nH]c6c5)cc4s3)ccc2[nH]1)[C@@H](C)OC` [Compound 199], the figure is at most 5 nM; as for `COC(=O)N[C@H](C(=O)N1CCC[C@H]1c1nc2cc(-c3ccc(-c4ccc5c(c4)nc([C@@H]4CCCN4C(=O)[C@@H](NC(=O)OC)C(C)C)n5C)cc3)ccc2n1C)C(C)C` [Compound 231], above 5000 nM.
Turning to `COC(=O)N[C@H](C(=O)N1[C@@H](C)CC[C@H]1c1nc2cc(-c3csc4c(-c5ccc6[nH]c([C@@H]7CC[C@H](C)N7C(=O)[C@@H](NC(=O)OC)C(C)C)nc6c5)csc34)ccc2[nH]1)C(C)C` [Compound 319], the EC50 is at most 5 nM.
As for `COC(=O)N[C@H](C(=O)N1C[C@@H](F)C[C@H]1c1nc2cc(-c3ccc(-c4ccc5nc([C@@H]6C[C@H](F)CN6C(=O)[C@@H](NC(=O)OC)C(C)C)[nH]c5c4)cc3)ccc2[nH]1)C(C)C` [Compound 169], the figure is at most 5 nM; as for `COC(=O)N[C@H](C(=O)N1CCC[C@H]1c1nc2cc(-c3ccc(-c4ccc5nc([C@@H]6CCCN6C(=O)[C@@H](NC(=O)OC)C(C)C)[nH]c5c4)cc3)ccc2[nH]1)C(C)C` [Compound 1, ((S)-1-{(S)-2-[5-(4-{2-[(S)-1-((S)-2-Methoxycarbonylamino-3-methyl-butyryl)-pyrrolidin-2-yl]-1H-benzoimidazol-5-yl}-phenyl)-1H-benzoimidazol-2-yl]-pyrrolidine-1-carbonyl}-2-methyl-propyl)-carbamic acid methyl ester], at most 5 nM; as for `COC(=O)N[C@H](C(=O)N1C[C@@H](C)C[C@H]1c1nc2ccc(-c3ccc(-c4ccc5nc([C@@H]6C[C@H](C)CN6C(=O)[C@@H](NC(=O)OC)C(C)C)n(C)c5c4)cc3)cc2n1C)C(C)C` [Compound 293], at most 5 nM.
On to `CC(=O)N[C@H](C(=O)N1CCC[C@H]1c1nc2cc(C#Cc3ccc4[nH]c([C@@H]5CCCN5C(=O)[C@H](NC(C)=O)C(C)C)nc4c3)ccc2[nH]1)C(C)C` [Compound 97], for which the EC50 fell in the range of 5 to 5000 nM.
For `COC(=O)N[C@H](C(=O)N1C[C@@H](C)C[C@H]1c1nc2cc(-c3cc(F)c(-c4ccc5[nH]c([C@@H]6C[C@H](C)CN6C(=O)[C@@H](NC(=O)OC)C(C)C)nc5c4)cc3F)ccc2[nH]1)C(C)C` [Compound 280], the EC50 was at most 5 nM.
